Source: paper PMC2662524 (Biochemistry, 2008)

How the values were obtained:
cytochrome P450eryF [1] = target: T1, cytochrome P450eryF (Saccharopolyspora erythraea, UniProt Q00441); assay: lifetime FRET from F7GA to heme; format: binding
cytochrome P450eryF [2] = target: T1, cytochrome P450eryF; assay: ligand-induced spin shift; format: binding

T1 sequence (Q00441 whole entry): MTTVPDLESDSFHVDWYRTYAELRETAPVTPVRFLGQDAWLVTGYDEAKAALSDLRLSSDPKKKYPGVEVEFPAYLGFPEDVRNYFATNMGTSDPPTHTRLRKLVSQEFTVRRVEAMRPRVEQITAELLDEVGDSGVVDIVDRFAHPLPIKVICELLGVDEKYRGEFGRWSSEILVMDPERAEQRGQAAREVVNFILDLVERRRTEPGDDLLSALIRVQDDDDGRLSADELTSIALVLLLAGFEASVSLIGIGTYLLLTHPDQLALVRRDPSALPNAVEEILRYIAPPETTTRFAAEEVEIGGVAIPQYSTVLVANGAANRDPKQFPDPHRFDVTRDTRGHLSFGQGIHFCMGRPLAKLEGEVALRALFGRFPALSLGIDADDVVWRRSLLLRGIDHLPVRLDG

| Structure (SMILES) | Kd (cytochrome P450eryF [1]) | Kd (cytochrome P450eryF [2]) |
| --- | --- | --- |
| CCCCNc1ccc2c3c(cccc13)C(=O)N(CCCC)C2=O [F7GA, 2-butyl-6-(butylamino)-1H-benzo[de]isoquinoline-1,3(2H)-dione] | 140 ± 60 nM | – |
| CCN(CC)c1ccc2nc3c4ccccc4c(=O)cc-3oc2c1 [Nile Red] | – | 3200 ± 200 nM |
